Literature values as cited in PubChem BioAssay AID1259409 (Chemical Carcinogenesis Research Information System (CCRIS), 2018).

System: rodent chemically induced tumor inhibition, incidence and multiplicity
Experiment: CCRIS tumor inhibitor studies
Details: Promoter: NONE USED

SMILES: COc1ccc2c(c1)c(CC(=O)O)c(C)n2C(=O)c1ccc(Cl)cc1
- tumour outcome (control, treated, inhibition, significance) (Carcinogen: N-ETHYL-N-NITROSOUREA, 759-73-9, Dose [Inhibitor]: 0, 20 MG/L IN DRINKING WATER FOR 12 MO ADMINISTERED TO OFFSPRING OF CARCINOGEN-TREATED MOTHERS (STUDY DURATION: 12 MO), Route [Inhibitor]: ORAL, Species: RAT, Strain/Sex: ALBINO/MALE, FEMALE, Target Tissue: Type of Lesion: PERIPHERAL NERVES: TUMOR, Dose [Carcinogen]: 75 MG/KG BW ADMINISTERED INTRAPERITONEALLY TO MOTHERS 21 D POST CONCEPTION): 13/42 (31%), 3/25 (12%), 61%, not significant
- tumour outcome (control, treated, inhibition, significance) (Carcinogen: N-ETHYL-N-NITROSOUREA, 759-73-9, Dose [Inhibitor]: 0, 20 MG/L IN DRINKING WATER FOR 12 MO ADMINISTERED TO OFFSPRING OF CARCINOGEN-TREATED MOTHERS (STUDY DURATION: 12 MO), Route [Inhibitor]: ORAL, Species: RAT, Strain/Sex: ALBINO/MALE, FEMALE, Target Tissue: Type of Lesion: SPINAL CHORD: TUMOR, Dose [Carcinogen]: 75 MG/KG BW ADMINISTERED INTRAPERITONEALLY TO MOTHERS 21 D POST CONCEPTION): 11/42 (26%), 4/25 (16%), 38%, not significant
- tumour outcome (control, treated, inhibition, significance) (Carcinogen: N-METHYL-N-NITROSOUREA, 684-93-5, Dose [Inhibitor]: 2.5 MG/KG BW FOR 10 WK STARTING 21 WK POST CARCINOGEN TREATMENT (STUDY DURATION: 35 WK), Route [Inhibitor]: INTRAPERITONEAL, Species: RAT, Strain/Sex: CD/F344/FEMALE, Target Tissue: Type of Lesion: COLON: ADENOCARCINOMA, Dose [Carcinogen]: 2 MG 3/WK FOR 5 WK): 6/9 (67%), 6/9 (67%), 0%, not significant
- tumour outcome (control, treated, inhibition, significance) (Carcinogen: N-METHYL-N-NITROSOUREA, 684-93-5, Dose [Inhibitor]: 2.5 MG/KG BW FOR 15 WK STARTING 5 WK POST CARCINOGEN TREATMENT (STUDY DURATION: 26 WK), Route [Inhibitor]: INTRAPERITONEAL, Species: RAT, Strain/Sex: CD/F344/FEMALE, Target Tissue: Type of Lesion: COLON: ADENOCARCINOMA, Dose [Carcinogen]: 2 MG 3/WK FOR 5 WK): 20/30 (67%), 9/29 (31%), 54%, p<0.02
- tumour outcome (control, treated, inhibition, significance) (Carcinogen: N-METHYL-N-NITROSOUREA, 684-93-5, Dose [Inhibitor]: 2.5 MG/KG BW FOR 15 WK STARTING 5 WK POST CARCINOGEN TREATMENT FOLLOWED BY 10 WK CESSATION OF TREATMENT (STUDY DURATION:, Route [Inhibitor]: INTRAPERITONEAL, Species: RAT, Strain/Sex: CD/F344/FEMALE, Target Tissue: Type of Lesion: COLON: ADENOCARCINOMA, Dose [Carcinogen]: 2 MG 3/WK FOR 5 WK): 6/9 (67%), 7/9 (78%), -16%, not significant
- tumour outcome (control, treated, inhibition, significance) (Carcinogen: N-METHYL-N-NITROSOUREA, 684-93-5, Dose [Inhibitor]: 10 UG/ML TAP WATER FOR 15 WK STARTING 10 WK AFTER THE START OF CARCINOGEN TREATMENT AND CONTINUING THROUGH END OF STUDY, Route [Inhibitor]: ORAL, Species: RAT, Strain/Sex: CD-FISCHER/FEMALE, Target Tissue: Type of Lesion: LARGE INTESTINE: ADENOCARCINOMA, Dose [Carcinogen]: 2 MG 3/WK FOR 5 WK): 18/27 (67%), 4/28 (14%), 79%, p<0.01
- tumour outcome (control, treated, inhibition, significance) (Carcinogen: N-METHYL-N-NITROSOUREA, 684-93-5, Dose [Inhibitor]: 20 UG/ML TAP WATER FOR 15 WK STARTING 10 WK AFTER THE START OF CARCINOGEN TREATMENT AND CONTINUING THROUGH END OF STUDY, Route [Inhibitor]: ORAL, Species: RAT, Strain/Sex: CD-FISCHER/FEMALE, Target Tissue: Type of Lesion: LARGE INTESTINE: ADENOCARCINOMA, Dose [Carcinogen]: 2 MG 3/WK FOR 5 WK): 18/27 (67%), 4/24 (17%), 75%, p<0.01
- tumour outcome (control, treated, inhibition, significance) (Carcinogen: N-NITROSOMETHYLUREA, 684-93-5, Dose [Inhibitor]: 0, 0.001% IN DRINKING WATER FOR STUDY DAYS 1 TO 8 (STUDY DURATION: 31 WK), Route [Inhibitor]: ORAL, Species: RAT, Strain/Sex: SPRAGUE-DAWLEY/MALE, Target Tissue: Type of Lesion: LARGE BOWEL: ADENOCARCINOMA, Dose [Carcinogen]: 4 MG ON D 3, 5 AND 7 OF STUDY): 26/29 (90%), 20/30 (67%), 26%, not significant
- tumour outcome (control, treated, inhibition, significance) (Carcinogen: UVB IRRADIATION, Dose [Inhibitor]: 700 NMOL IN 0.1 ML ACETONE 5/WK FOR 4 WK IMMEDIATELY AFTER EACH EXPOSURE TO UVB FOLLOWED BY 48 WK OBSERVATION PERIOD (ST, Route [Inhibitor]: DERMAL, Species: MOUSE, Strain/Sex: SKH/HRL/FEMALE, Target Tissue: Type of Lesion: SKIN: TUMOR, Dose [Carcinogen]: 0.3 KJ/SQM ON FIRST DAY, 0.6 KJ/SQM ON SECOND DAY THEN 0.9 KJ/SQM UVB ADMINISTERED 5 D/WK FOR 4 WK): 8/27 (30%), 6/26 (23%), 23%, not significant
- tumour outcome (control, treated, inhibition, significance) (Dose [Inhibitor]: 0, 0.005% IN DIET FOR DURATION OF STUDY BEGINNING SIMULTANEOUSLY WITH CARCINOGEN TREATMENT (STUDY DURATION: 40 WK), Route [Inhibitor]: ORAL, Species: RAT, Strain/Sex: WISTAR/MALE, Target Tissue: Type of Lesion: COLON: TUMOR, Dose [Carcinogen]: 1 ML OF 0.1% DISTILLED WATER SOLUTION 1/D FOR 14 D): 27/33 (82%), 5/18 (28%), 66%, p<0.01
